Laboratory results from patent US20030158199A1, “Novel compounds for inhibition of Tie-2” (KYLIX, B.V., priority 2002, published 2003).
Structures can show the parent of a compound that is named as a salt.

Experiments:
Tie-2 = molecular target: T1, Tie-2 (Homo sapiens, UniProt Q02763); assay: RTK ELISA, recombinant kinase domain, Tie-2; assay type: biochemical; settings: GST-Tie2/Tek (aa 771-1124) expressed in baculovirus infected insect cells
T1 construct: GST-Tie2/Tek (aa 771-1124); GST (N); purchased ProQuinase, Freiburg; host or cells: baculovirus infected insect cells Sf9
Description: (§1) Follwing IC50 values were determined in the RTK ELISA using recombinant kinase domains of receptor tyrosine kinases which were expressed in baculovirus infected insect cells.
(§2) Receptor Tyrosine Kinase Assay
(§3) The following in vitro assays are used to determine the ability of different compounds to inhibit the transfer of phosphate groups onto tyrosine residues of downstream substrates. The level of phosphorylation is measured by a monoclonal antibody which is specific for phosphorylated tyrosine residues in an enzyme-linked immunosorbent assay (ELISA).
(§4) The following recombinant kinases were expressed in baculovirus infected insect cells Sf9 and purchased from ProQuinase, Freiburg:
(§5) If not otherwise indicated all steps are performed at room temperature.
(§6) 1.) Coat wells of ELISA plate with […] Poly-Glu-Tyr 4:1 in 100 μl/well PBS buffer (137 mM NaCl, 3 mM KCl, 1.5 mM KH2PO4, 8.2 mM Na2HPO4) overnight at 4° C.
(§7) 2.) Wash 2 times for 5 min each with PBS+0.05% Tween20 […]
(§8) a) Add 5-30 ng/well kinase in 50 μl/well kinase buffer (100 mM HEPES pH 7.4, 100 mM NaCl, 0.1 mM Na3VO4) b) Add 25 μl/well compound (50 and 5 μM) in 5% DMSO c) Add 25 μl/well 100 μM ATP in 40 mM MnCl2
(§9) 4.) Wash 3 times for 5 min each with PBS+0.05% Tween20
(§10) 5.) Add anti phosphotyrosin antibody/HRP 1:10.000 in 100 μl/well PBS+0.05% Tween+0.1 BSA, incubate for 1 h
(§11) 6.) Wash 3 times for 5 min each with PBS+0.05% Tween20
(§12) 7.) Chemoluminescence reaction: a.) Premix 25 μl/well BM CLS Solution 1 with 0.25 μl/well BM CLS Solution 2 b.) Preincubate for 15 min […]
(§13) d.) Add 50 μl/well substrate solution to microtiter wells e.) Incubate for at least 1 min
(§14) 8.) Detect chemoluminescence signals in Tecan Genios reader

KDR = molecular target: T2, KDR (Homo sapiens, UniProt P35968); assay: RTK ELISA, recombinant kinase domain, KDR; assay type: biochemical; settings: GST-KDR (aa807-1356) expressed in baculovirus infected insect cells
T2 construct: GST-KDR (aa807-1356); GST (N); purchased ProQuinase, Freiburg; host or cells: baculovirus infected insect cells Sf9
Description: as §1, §2, §3, §4, §5, §6, §7, §8, §9, §10, §11, §12, §13, §14

c-Met = molecular target: T3, c-Met (Homo sapiens, UniProt P08581); assay: RTK ELISA, recombinant kinase domain, c-Met; assay type: biochemical; settings: GST-cMet (aa956-1390) expressed in baculovirus infected insect cells
T3 construct: GST-cMet (aa956-1390); GST (N); purchased ProQuinase, Freiburg; host or cells: baculovirus infected insect cells Sf9
Description: as §1, §2, §3, §4, §5, §6, §7, §8, §9, §10, §11, §12, §13, §14

tumor metastasis = settings: delivered at the time of surgical excision of primary tumors, mouse model; cited from earlier work

T2 sequence (P35968 807-1356): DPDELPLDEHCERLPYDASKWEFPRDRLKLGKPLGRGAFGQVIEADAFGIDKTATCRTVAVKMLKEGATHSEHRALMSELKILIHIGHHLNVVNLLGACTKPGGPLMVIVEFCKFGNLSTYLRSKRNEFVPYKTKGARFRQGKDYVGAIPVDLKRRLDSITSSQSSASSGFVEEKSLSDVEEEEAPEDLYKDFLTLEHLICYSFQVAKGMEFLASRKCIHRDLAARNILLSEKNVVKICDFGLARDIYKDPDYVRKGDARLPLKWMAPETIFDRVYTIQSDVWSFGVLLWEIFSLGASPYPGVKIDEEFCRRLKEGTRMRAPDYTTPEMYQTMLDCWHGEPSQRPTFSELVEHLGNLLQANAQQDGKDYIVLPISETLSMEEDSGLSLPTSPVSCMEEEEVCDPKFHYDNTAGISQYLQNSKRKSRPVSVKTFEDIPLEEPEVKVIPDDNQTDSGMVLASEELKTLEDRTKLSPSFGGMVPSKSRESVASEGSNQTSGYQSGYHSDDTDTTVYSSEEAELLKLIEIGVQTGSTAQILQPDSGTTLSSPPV
T1 sequence (Q02763 771-1124): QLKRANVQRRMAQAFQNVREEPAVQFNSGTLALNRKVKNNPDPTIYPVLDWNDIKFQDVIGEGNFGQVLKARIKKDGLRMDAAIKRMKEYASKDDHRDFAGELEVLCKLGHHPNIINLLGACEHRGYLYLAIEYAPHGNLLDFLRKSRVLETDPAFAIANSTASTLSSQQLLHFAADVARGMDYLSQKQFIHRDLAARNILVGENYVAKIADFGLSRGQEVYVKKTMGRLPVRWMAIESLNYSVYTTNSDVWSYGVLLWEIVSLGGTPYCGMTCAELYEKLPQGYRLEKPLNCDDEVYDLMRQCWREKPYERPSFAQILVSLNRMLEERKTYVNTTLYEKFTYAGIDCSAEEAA
T3 sequence (P08581 956-1390): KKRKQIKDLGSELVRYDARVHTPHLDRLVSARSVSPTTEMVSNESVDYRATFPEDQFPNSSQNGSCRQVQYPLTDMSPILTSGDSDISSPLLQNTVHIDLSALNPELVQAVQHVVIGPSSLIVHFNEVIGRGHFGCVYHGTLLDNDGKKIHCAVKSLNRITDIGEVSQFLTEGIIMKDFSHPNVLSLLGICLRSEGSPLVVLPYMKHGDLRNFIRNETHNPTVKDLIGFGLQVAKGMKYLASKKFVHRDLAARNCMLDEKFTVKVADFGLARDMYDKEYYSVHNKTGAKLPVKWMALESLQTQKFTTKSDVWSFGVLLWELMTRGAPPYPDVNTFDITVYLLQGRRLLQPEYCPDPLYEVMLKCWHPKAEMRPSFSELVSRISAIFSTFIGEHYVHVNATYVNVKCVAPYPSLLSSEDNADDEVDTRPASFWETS

**Q.** With `c1cncc(Nc2nc(-c3ccc(N4CCCC4)cc3)cs2)c1` [Number 13, Hydrobromide] as the molecule, how does the IC50 (Tie-2) read?
**A.** The IC50 was 1 µM.

**Q.** What about the IC50 (KDR) of the same molecule?
**A.** Its IC50 is 2 µM.

**Q.** What about the IC50 (c-Met) of the same molecule?
**A.** The IC50 was > 10 µM.

**Q.** Which IC50 (Tie-2) does the source give for `CCN(CC)c1ccc(-c2csc(NC)n2)cc1` [Number 25, [4-(4-diethylamino-phenyl)-thiazol-2-yl]-methyl-amine Hydrobromide] here?
**A.** The IC50 was 1 µM.

**Q.** What about the IC50 (KDR) of the same molecule?
**A.** The IC50 was 5 µM.

**Q.** And the IC50 (c-Met)?
**A.** The IC50 was > 50 µM.

**Q.** Which results are given for `Nc1nc(-c2ccc(N3CCCC3)cc2)co1` [Number 6, 4-(4-pyrrolidin-1-yl-phenyl)-oxazol-2-ylamine Hydrobromide]?
**A.** IC50 (Tie-2): 5 µM; IC50 (KDR): > 25 µM; IC50 (c-Met): > 50 µM

**Q.** With `FC(F)(F)c1cccc(Nc2nc(-c3ccc(N4CCCC4)cc3)cs2)c1` [Number 19, [4-(4-pyrrolidin-1-yl-phenyl)-thiazol-2-yl]-(3-trifluoromethyl-phenyl)-amine Hydrobromide] as the molecule, how does the IC50 (Tie-2) read?
**A.** The IC50 was 2 µM.

**Q.** What about the IC50 (KDR) of the same molecule?
**A.** The IC50 was 2 µM.

**Q.** And the IC50 (c-Met)?
**A.** Its IC50 is > 50 µM.

**Q.** With `CCN(CC)c1ccc(-c2csc(N(C)c3ccccc3)n2)cc1` [Number 27, [4-(4-diethylamino-phenyl)-thiazol-2-yl]-methyl-phenyl-amine Hydrobromide] as the molecule, how does the IC50 (Tie-2) read?
**A.** The IC50 was > 50 µM.

**Q.** And the IC50 (KDR)?
**A.** Its IC50 is > 50 µM.

**Q.** And the IC50 (c-Met)?
**A.** Its IC50 is > 50 µM.

**Q.** With `CCN(CC)c1ccc(-c2csc(Nc3ccccn3)n2)cc1` [Number 29, [4-(4-diethylamino-phenyl)-thiazol-2-yl)-pyridin-2-yl-amine Hydrobromide] as the molecule, how does the IC50 (Tie-2) read?
**A.** Its IC50 is > 50 µM.

**Q.** What about the IC50 (KDR) of the same molecule?
**A.** Its IC50 is > 50 µM.

**Q.** And the IC50 (c-Met)?
**A.** The IC50 was > 50 µM.

**Q.** What does the source list for `CN(c1ccccc1)c1nc(-c2ccc(N3CCCC3)cc2)cs1` [Number 9, methyl-phenyl-[4-(4-pyrrolidin-1-yl-phenyl)-thiazol-2-yl]-amine Hydrobromide]?
**A.** IC50 (Tie-2): 2.5 µM; IC50 (KDR): > 25 µM; IC50 (c-Met): > 25 µM

**Q.** What does the source list for `CNc1nc(-c2ccc(N3CCCC3)cc2)cs1` [Number 7, methyl-[4-(4-pyrrolidin-1-yl-phenyl)-thiazol-2-yl]-amine Hydrobromide]?
**A.** IC50 (Tie-2): 3 µM; IC50 (KDR): 7 µM; IC50 (c-Met): > 50 µM

**Q.** For `c1ccc(Nc2nc(-c3ccc(N4CCCC4)cc3)cs2)cc1` [Number 8, phenyl-[4-(4-pyrrolidin-1-yl-phenyl)-thiazol-2-yl]-amine Hydrobromide], which IC50 (Tie-2) is on record?
**A.** The IC50 was 5 µM.

**Q.** And the IC50 (KDR)?
**A.** Its IC50 is 2.5 µM.

**Q.** What about the IC50 (c-Met) of the same molecule?
**A.** The IC50 was > 25 µM.

**Q.** Which results are given for `CCN(CC)c1ccc(-c2csc(NCc3ccccc3)n2)cc1` [Number 28, benzyl-[4-(4-diethylamino-phenyl)-thiazol-2-yl]-amine Hydrobromide]?
**A.** IC50 (Tie-2): > 50 µM; IC50 (KDR): > 50 µM; IC50 (c-Met): > 50 µM

**Q.** What does the source list for `c1cncc(Nc2nccs2)c1` [Number 4, pyridin-3-yl-thiazol-2-yl-amine Hydrochloride]?
**A.** IC50 (Tie-2): > 50 µM; IC50 (KDR): 5 µM; IC50 (c-Met): > 25 µM

**Q.** What does the source list for `c1cc(-c2nc(-c3ccc(N4CCCC4)cc3)co2)ccn1` [Number 16, 4-[4-(4-pyrzolidin-1-yl-phenyl)-oxazol-2-yl]-pyridine Hydrobromide]?
**A.** IC50 (Tie-2): > 50 µM; IC50 (KDR): > 50 µM; IC50 (c-Met): > 50 µM

**Q.** Which results are given for `O=C(O)c1ccc(Nc2nc(-c3ccc(N4CCCC4)cc3)cs2)cc1` [Number 20, 4-[4-(4-pyrrolidin-1-yl-phenyl)-thiazol-2-ylamino]-benzoic Acid Hydrobromide]?
**A.** IC50 (Tie-2): < 1 µM; IC50 (KDR): 1 µM; IC50 (c-Met): > 10 µM

**Q.** What does the source list for `O=[N+]([O-])c1ccc(Nc2nc(-c3ccc(N4CCCC4)cc3)cs2)cc1` [Number 17, Dihydrobromide]?
**A.** IC50 (Tie-2): 2 µM; IC50 (KDR): > 10 µM; IC50 (c-Met): > 25 µM

**Q.** For `CCN(CC)c1ccc(-c2csc(Nc3ccccc3)n2)cc1` [Number 26, [4-(4-Diethylamino-phenyl)-thiazol-2-yl]-phenyl-amine Hydrobromide], which IC50 (Tie-2) is on record?
**A.** The IC50 was 2 µM.

**Q.** And the IC50 (KDR)?
**A.** Its IC50 is 2 µM.

**Q.** And the IC50 (c-Met)?
**A.** Its IC50 is > 25 µM.

**Q.** For `c1cc(Nc2nc(-c3ccc(N4CCCC4)cc3)cs2)ccc1Nc1nc(-c2ccc(N3CCCC3)cc2)cs1` [Number 18, N,N′-bis-[4-(4-pyrrolidin-1-yl-phenyl)-thiazol-2-yl]-benzene-1,4-diamine Dihydrobromide], which IC50 (Tie-2) is on record?
**A.** The IC50 was > 10 µM.

**Q.** What about the IC50 (KDR) of the same molecule?
**A.** The IC50 was > 10 µM.

**Q.** What about the IC50 (c-Met) of the same molecule?
**A.** The IC50 was > 50 µM.

B1: Ad-ExTek: a soluble adenoviral expressed extracellular domain of Tie-2 (protein, UniProt Q02763 23-748, looked up)
extracellular domain: AMDLILINSLPLVSDAETSLTCIASGWRPHEPITIGRDFEALMNQHQDPLEVTQDVTREWAKKVVWKREKASKINGAYFCEGRVRGEAIRIRTMKMRQQASFLPATLTMTVDKGDNVNISFKKVLIKEEDAVIYKNGSFIHSVPRHEVPDILEVHLPHAQPQDAGVYSARYIGGNLFTSAFTRLIVRRCEAQKWGPECNHLCTACMNNGVCHEDTGECICPPGFMGRTCEKACELHTFGRTCKERCSGQEGCKSYVFCLPDPYGCSCATGWKGLQCNEACHPGFYGPDCKLRCSCNNGEMCDRFQGCLCSPGWQGLQCEREGIQRMTPKIVDLPDHIEVNSGKFNPICKASGWPLPTNEEMTLVKPDGTVLHPKDFNHTDHFSVAIFTIHRILPPDSGVWVCSVNTVAGMVEKPFNISVKVLPKPLNAPNVIDTGHNFAVINISSEPYFGDGPIKSKKLLYKPVNHYEAWQHIQVTNEIVTLNYLEPRTEYELCVQLVRRGEGGEGHPGPVRRFTTASIGLPPPRGLNLLPKSQTTLNLTWQPIFPSSEDDFYVEVERRSVQKSDQQNIKVPGNLTSVLLNNLHPREQYVVRARVNTKAQGEWSEDLTAWTLSDILPPQPENIKISNITHSSAVISWTILDGYSISSITIRYKVQGKNEDQHVDVKIKNATITQYQLKGLEPETAYQVDIFAENNIGSSNPAFSHELVTLPESQAPADLGGGKMLL
modifications: extracellular domain
**Q.** Which tumor metastasis (tumor metastasis) does the source give for B1 here?
**A.** The tumor metastasis was “inhibited tumor metastasis”.
